One test concerns the target T1, TLR8 (Homo sapiens, UniProt Q9NR97).
T1 construct: treated with TIC10-7 for 1 hour, and then treated with TL8-506 as a TLR8 agonist for 4 hours; endogenous in cells; host or cells: THP-1 differentiated with PMA
T1 sequence (Q9NR97 27-1041): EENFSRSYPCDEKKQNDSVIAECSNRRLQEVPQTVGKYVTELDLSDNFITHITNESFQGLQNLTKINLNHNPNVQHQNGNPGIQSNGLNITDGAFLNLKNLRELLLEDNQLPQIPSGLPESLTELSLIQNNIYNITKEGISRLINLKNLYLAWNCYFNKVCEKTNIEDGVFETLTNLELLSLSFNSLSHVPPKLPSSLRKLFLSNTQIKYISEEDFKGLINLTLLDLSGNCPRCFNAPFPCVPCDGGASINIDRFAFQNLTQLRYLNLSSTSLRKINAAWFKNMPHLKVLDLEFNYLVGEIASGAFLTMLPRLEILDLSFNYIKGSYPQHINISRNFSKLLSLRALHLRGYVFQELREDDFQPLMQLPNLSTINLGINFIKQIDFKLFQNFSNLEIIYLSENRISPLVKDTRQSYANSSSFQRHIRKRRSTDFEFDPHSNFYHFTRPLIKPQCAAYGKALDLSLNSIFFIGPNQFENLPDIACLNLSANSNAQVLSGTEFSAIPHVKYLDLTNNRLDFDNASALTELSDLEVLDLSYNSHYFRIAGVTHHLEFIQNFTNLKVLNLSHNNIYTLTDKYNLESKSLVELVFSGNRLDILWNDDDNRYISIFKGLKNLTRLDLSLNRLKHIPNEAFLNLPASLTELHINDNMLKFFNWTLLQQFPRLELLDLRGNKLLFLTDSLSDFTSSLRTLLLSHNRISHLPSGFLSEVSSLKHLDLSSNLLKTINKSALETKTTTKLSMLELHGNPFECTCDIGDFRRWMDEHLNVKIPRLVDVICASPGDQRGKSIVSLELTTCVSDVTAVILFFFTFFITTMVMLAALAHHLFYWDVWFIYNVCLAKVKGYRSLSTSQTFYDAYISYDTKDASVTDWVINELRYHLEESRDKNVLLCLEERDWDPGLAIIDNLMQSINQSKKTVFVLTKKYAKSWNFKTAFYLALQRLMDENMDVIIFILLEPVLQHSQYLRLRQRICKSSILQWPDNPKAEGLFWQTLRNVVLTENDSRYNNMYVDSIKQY
Kind of test: TLR8-mediated TNF-α secretion (TL8-506) in PMA-differentiated THP-1 cells, ELISA. It is filed as cell-based. The conditions noted are these: differentiated THP-1, 10 or 20 μM. Here is the method:
A murine macrophage cell line (RAW 264.7) was obtained from the Korean Cell Line Bank (KCLB) and the Korean Cell Line Research Foundation (KCLRF). The cells were cultured in DMEM (Dulbecco's modified Eagle's medium; HyClone Laboratories, Inc., San Angelo, Texas, USA) supplemented with 1% penicillin/streptomycin (HyClone Laboratories, Inc.) antibiotic mixture and 10% fetal bovine serum (FBS; Thermo Fisher Scientific, Inc., Waltham, MA, USA). A human monocytic cell line (THP-1) was provided by Dr. Chang-Hee Suh, Ajou University School of Medicine, Suwon, Korea. […]
Agonists specific to TLR1/TLR2 (Pam3CSK4), TLR2/TLR6 (FSL-1), TLR3 (Poly I:C), TLR7 (imiquimod), and TLR8 (TL8-506) were purchased from InvivoGen Ltd. (Hong-Kong, China), and a TLR4-specific agonist (LPS from E. coli O111:B4) was purchased from Sigma-Aldrich, Inc. For TLR9-specific stimulation, class C CpG-ODN (ODN2395, 5′-TCGTCGTTTTCGGCGCGCGCCG-3′) having full phosphorothioate backbone modification was synthesized (Bioneer, Inc., Daejeon, Korea). […] The cells were treated with test compounds or a control medium for 1 hour, and then stimulated with a TLR agonist for 4 hours, or 24 hours in the case of poly(I:C), and the cytokine secretion was monitored. […]
In general terms: ELISA stands for enzyme-linked immunosorbent assay.

Test [1] deals with phosphorylation of MAPK (JNK, p38-MAPK, ERK) and p65 subunit of NF-κB. In words: Western blot of NF-κB p65 and MAPK phosphorylation after ODN2395 stimulation. It is filed as cell-based, murine. The conditions noted are these: RAW 264.7, 20 μM, ODN2395 stimulation 15 min and 30 min. The procedure:
RAW 264.7 cells were seeded into a 60 mm cell culture dish at a density of 2×10^6 cells/dish, and treated with test compounds followed by TLR agonists. The cell lysate was harvested through mammalian protein extraction kit (M-PER; Thermo Fisher Scientific, Inc.) with the protease and phosphatase inhibitor cocktail (Thermo Fisher Scientific, Inc.), and the protein levels were quantified using a bicinchoninic acid assay (Sigma-Aldrich, Co.). Protein samples were separated by SDS-PAGE and transferred to nitrocellulose membranes (GE Healthcare, Inc., Chicago, IL, USA). The membranes were incubated with primary antibodies specific to phospho-JNK (Cell Signaling Technology, Inc., Danvers, MA, USA), phospho-ERK (Santa Cruz Biotechnology, Inc., Dallas, TX, USA), phospho-p38-MAPK (Cell Signaling Technology, Inc.), phospho-p65 (Cell Signaling Technology, Inc.), or β-actin (Santa Cruz Biotechnology, Inc.). […] Protein levels were confirmed using a chemiluminescent substrate (SuperSignal™ West Pico PLUS, Thermo Fisher Scientific, Inc.) and a luminescence detection system (Fusion Solo S, VILBER, France).
In general, MYD88 recruitment by TLRs triggers the activation of the transcription factor NF-κB as well as the cell proliferation factor MAPK. […]
In general terms: A western blot detects proteins with antibodies after separation by electrophoresis.

With `COc1ccc(CNc2ncc(-c3ccc4c(c3)OCO4)n2C)c(OC)c1` [TIC10-7, 5-(2H-1,3-benzodioxol-5-yl)-N-[(2,4-dimethoxyphenyl)methyl]-1-methyl-1H-imidazol-2-amine], the “TLR8-mediated TNF-α secretion” value on TLR8 is given as “least affected”. For the same molecule, the “phosphorylation of MAPK (JNK, p38-MAPK, and ERK) and the p65 subunit of NF-κB” value in test [1] is “blocked the robust phosphorylation”.

The record behind these values is US12565475B2, “Small molecule compound inhibiting signal transmission path of TLR7 and TLR9 and use thereof” (AJOU UNIVERSITY INDUSTRY-ACADEMIC COOPERATION FOUNDATION, priority 2019, dated 2026).
